Measurements from PMC4630399, “Charge-Based Inhibitors of Amylin Fibrillization and Toxicity” (Journal of Diabetes Research, 2015).
Entries after “also recorded” stand apart in the source; their conditions may differ. Positions of bridges follow the written chain, without caps; N, C: chain ends. Residues, ends and D or L forms follow the SMILES beside them.

Experiments:
[1] = ThT assay of fibrillization kinetics, peptides alone; type: physicochemical; details: for fibrillization lag time / fibril elongation rate: triplicate
Method: (§1) The time course of fibrillization in solution was monitored using 100–200 μL amylin samples, contained in white polystyrene clear bottom 96-well plates (Corning Inc., Corning, NY). Plates were covered with a clear polyester sealing tape (Fisher Scientific, Agawam, MA) to prevent evaporation. Stock solutions of 1.1 mM WT-amylin and inhibitor peptides were prepared in 100% DMSO, which dissolves and disaggregates amylin fibrils, and were stored at −80°C when not in use. Starting from the 1.1 mM stock solutions in 100% DMSO, samples for fibrillization reactions were prepared to contain 20 μM amylin and 10 μM ultrapure ThT, in 20 mM sodium phosphate buffer, pH 7.4, and a final DMSO concentration of 2% (v/v). For experiments using larger 400 μM concentrations of Arg-2 and Mem-T, the solutions were prepared by diluting 100% DMSO stock solutions of 20 mM peptide to a final DMSO concentration of 2% (v/v). Amylin was the last component added to the samples for the kinetic reactions, in order to reduce the dead time for the experiments. The plates were incubated at 25°C without agitation. Fluorescence intensity was recorded at 2 min intervals with excitation at 440 nm and emission at 490 nm on a Fluoroskan Ascent 2.5 fluorescence plate reader. Fibrillization reactions for the peptides alone were performed in triplicate and for analog-peptide inhibition of WT-amylin in duplicate, to estimate experimental uncertainties in kinetic parameters.

[2] = TEM of aggregates formed by peptides alone; type: physicochemical; details: 80 μM peptide, 2 days, 20 mM phosphate pH 7.4, 37°C, no agitation
Method: (§2) Samples containing 80 μM concentrations of WT-amylin and the three analogs were incubated without agitation at a temperature of 37°C in 20 mM phosphate buffer (pH 7.4). For the inhibition reactions, samples contained WT-amylin at an 80 μM concentration, together with 160 μM of Arg-1, Arg-2, or Mem-T analogs. Aliquots from the reactions were removed after 2 days for TEM imaging. The aliquots were blotted onto carbon-coated 400-mesh Maxtaform copper grids (Ted Pella Inc. Redding, CA) for 1–3 min, followed by negative staining with 1% uranyl acetate. TEM images were recorded on an FEI Tecnai G^2 Spirit BioTwin transmission electron microscope equipped with an AMT XR-40 camera.

[3] = tested on: WT-amylin cytotoxicity towards MIN6 mouse model of pancreatic β-cells; experiment: Protection of MIN6 cells against WT-amylin cytotoxicity (Alamar Blue); details: for protection against WT-amylin cytotoxicity (overall): MIN6 cells, 80 μM WT-amylin, up to 2 : 1 inhibitor : WT-amylin
Method: The stock solutions were diluted with FBS-free DMEM and sonicated continuously for 5 min at 75% amplitude before use. FBS was subsequently added to a concentration of 15% (v/v), giving final amylin concentrations of 40, 80, and 160 μM. The final DMSO concentration for all cytotoxicity experiments was 1% (v/v).
Cytotoxicity was measured using the mouse insulinoma 6 (MIN6) cell line model of β-pancreatic cells, which were a gift from Dr. Anil Rustgi (University of Pennsylvania). Cells were seeded at a density of 20,000 per 100 μL in black clear-bottom 96-well plates. The cells were grown in DMEM with 15% FBS, 25 mM glucose, 2 mM L-glutamine, […] sodium pyruvate, 55 μM β-mercaptoethanol, 1000 units/mL penicillin, and 100 μg/mL streptomycin, for 20 h at 37°C in a humidified incubator with 5% CO2. […] The cells were incubated for another 24 h followed by the addition of 10% (v/v) of the redox indicator dye Alamar Blue at the concentration supplied by the manufacturer (Invitrogen). Fluorescence, due to the reduction of Alamar Blue by viable cells, was measured after 6 h, using excitation and emission wavelengths of 544 and 590 nm, respectively. Cell viability was calculated from the ratio of Alamar Blue fluorescence in treated to untreated cells. Uncertainties were calculated as the SEMs of triplicate measurements.

WT-amylin [4] = target: T1, WT-amylin (Homo sapiens, UniProt P10997); experiment: ThT assay, inhibition of WT-amylin fibrillization by analogs added in trans; type: biochemical; set-up: purchased Biopeptide (San Diego, CA); host or cells: solid-phase synthesis; details: for reduction of WT-amylin fibril elongation rate: analog 0.001 to 120 μM; for reduction of WT-amylin elongation rate: Arg-1 between 0 and 200 μM
T1 sequence (P10997 34-70 limits assumed): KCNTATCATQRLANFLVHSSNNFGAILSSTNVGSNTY
Method: as §1, with “Starting from the 1.1 mM stock solutions in 100% DMSO, samples for fibrillization reactions were prepared to contain 20 μM amylin and 10 μM ultrapure ThT, in 20 mM sodium phosphate buffer, pH 7.4, and a final DMSO concentration of 2% (v/v).” left out

WT-amylin [5] = target: T1, WT-amylin; experiment: TEM of WT-amylin fibrils formed in presence of inhibitor peptides; type: biochemical; set-up: purchased Biopeptide (San Diego, CA); host or cells: solid-phase synthesis; details: 80 μM WT-amylin with 160 μM analog, 20 mM sodium phosphate pH 7.4, 1% DMSO, 37°C, 24 h
Method: as §2
Figure 8 TEM images of fibrils formed from 80 μM WT amylin in the presence or absence of inhibitor peptides. (a) WT amylin alone, (b) with 160 μM Arg-1, (c) with 160 μM Arg-2, and (d) with 160 μM Mem-T. Aliquots were removed for TEM imaging 24 h after the fibrillization reactions were started. Reactions were carried out in 20 mM sodium phosphate (pH 7.4), 1% DMSO (v/v), at 37°C.

[6] = 20 μM peptide, 150 mM NaCl, pH 7.4, 25°C
[7] = 400 μM peptide, 150 mM NaCl, pH 7.4, 2% DMSO, 25°C, ThT

CC[C@H](C)[C@H](NC(=O)[C@H](C)NC(=O)CNC(=O)[C@H](Cc1ccccc1)NC(=O)[C@H](CC(N)=O)NC(=O)[C@H](CC(N)=O)NC(=O)[C@H](CO)NC(=O)[C@H](CO)NC(=O)[C@H](Cc1c[nH]cn1)NC(=O)[C@H](CCCNC(=N)N)NC(=O)[C@H](CCCNC(=N)N)NC(=O)[C@H](CCCNC(=N)N)NC(=O)[C@H](CCCNC(=N)N)NC(=O)[C@H](C)NC(=O)[C@H](CC(C)C)NC(=O)[C@H](CCCNC(=N)N)NC(=O)[C@H](CCC(N)=O)NC(=O)[C@@H](NC(=O)[C@H](C)NC(=O)[C@@H]1CSSC[C@H](NC(=O)[C@@H](N)CCCCN)C(=O)N[C@@H](CC(N)=O)C(=O)N[C@@H]([C@@H](C)O)C(=O)N[C@@H](C)C(=O)N[C@@H]([C@@H](C)O)C(=O)N1)[C@@H](C)O)C(=O)N[C@@H](CC(C)C)C(=O)N[C@@H](CO)C(=O)N[C@@H](CO)C(=O)N[C@H](C(=O)N[C@@H](CC(N)=O)C(=O)N[C@H](C(=O)NCC(=O)N[C@@H](CO)C(=O)N[C@@H](CC(N)=O)C(=O)N[C@H](C(=O)N[C@@H](Cc1ccc(O)cc1)C(N)=O)[C@@H](C)O)C(C)C)[C@@H](C)O [Arg-1] (H-KCNTATCATQRLARRRRHSSNNFGAILSSTNVGSNTY-NH2; disulfide 2-7 (inferred); N-terminus assumed)
increase of lag time compared to WT-amylin ([1]; 20 μM peptide, 150 mM NaCl): about 2 fold
reduction of elongation rate compared to WT-amylin ([1]; 20 μM peptide, 150 mM NaCl): about 30%
fibrillization detected (ThT) [1, 6]: detect fibrillization
fibrillization lag time ([1]; 20 μM peptide, 150 mM NaCl, 20 mM sodium phosphate pH 7.4, 10 μM ThT, 2% DMSO, 25°C, no agitation, fluorescence ex 440/em 490 nm): 210 min
fibril elongation rate ([1]; 20 μM peptide, 150 mM NaCl, 20 mM sodium phosphate pH 7.4, 10 μM ThT, 2% DMSO, 25°C, no agitation): 0.0068 min⁻¹
aggregate morphology by TEM [2]: formed much fewer fibrils; also recorded: formed a larger proportion of short fibrils than WT-amylin; also recorded: fewer fibrils with shorter lengths
protection against WT-amylin cytotoxicity (overall) [3]: protects against WT-amylin cytotoxicity
IC50 ([3]; mouse, 24 h): ~50 µM
effect on WT-amylin fibrillization lag time (WT-amylin [4]; 20 μM WT-amylin, 150 mM NaCl): no effects on the lag times within experimental uncertainty
effect on steady-state fluorescence plateau (WT-amylin [4]; 20 μM WT-amylin, 150 mM NaCl): reduction in the steady-state fluorescence plateaus; also recorded: only observed to decrease with the Arg-1 analog
reduction of WT-amylin fibril elongation rate (WT-amylin [4]; 20 μM WT-amylin, 150 mM NaCl): 8–10 fold
reduction of WT-amylin elongation rate (WT-amylin [4]; 20 μM WT-amylin, 150 mM NaCl): 7 fold
reduction of WT-amylin elongation rate (WT-amylin [4]; 20 μM WT-amylin, absence of salt): 4 fold
effect on WT-amylin lag times, elongation rates and fluorescence plateaus (WT-amylin [4]; 80 μM WT-amylin, increasing Arg-1, 150 mM NaCl): increases in lag times with increasing Arg-1 concentration as well as decreases in elongation rates and steady-state fluorescence plateaus
TEM of WT-amylin fibrils formed with inhibitor (WT-amylin [5]): somewhat fewer fibrils and a greater amount of short fibrils

CC[C@H](C)[C@H](NC(=O)[C@H](C)NC(=O)CNC(=O)[C@H](Cc1ccccc1)NC(=O)[C@H](CC(N)=O)NC(=O)[C@H](CC(N)=O)NC(=O)[C@H](CO)NC(=O)[C@H](CO)NC(=O)[C@H](Cc1c[nH]cn1)NC(=O)[C@H](CC(=O)O)NC(=O)[C@H](CC(=O)O)NC(=O)[C@H](CC(=O)O)NC(=O)[C@H](CC(N)=O)NC(=O)[C@H](C)NC(=O)[C@H](CC(=O)O)NC(=O)[C@H](CCCNC(=N)N)NC(=O)[C@H](CC(=O)O)NC(=O)[C@@H](NC(=O)[C@H](C)NC(=O)[C@@H]1CSSC[C@H](NC(=O)[C@@H](N)CCCCN)C(=O)N[C@@H](CC(N)=O)C(=O)N[C@@H]([C@@H](C)O)C(=O)N[C@@H](C)C(=O)N[C@@H]([C@@H](C)O)C(=O)N1)[C@@H](C)O)C(=O)N[C@@H](CC(C)C)C(=O)N[C@@H](CO)C(=O)N[C@@H](CO)C(=O)N[C@H](C(=O)N[C@@H](CC(N)=O)C(=O)N[C@H](C(=O)NCC(=O)N[C@@H](CO)C(=O)N[C@@H](CC(N)=O)C(=O)N[C@H](C(=O)N[C@@H](Cc1ccc(O)cc1)C(N)=O)[C@@H](C)O)C(C)C)[C@@H](C)O [Mem-T] (H-KCNTATCATDRDANDDDHSSNNFGAILSSTNVGSNTY-NH2; disulfide 2-7 (inferred); N-terminus assumed)
fibrillization detected (ThT) [1, 6]: failed to fibrillize
fibril elongation rate [1, 7]: 6.1 ± 1.4 × 10^−6 min^−1
fibrillization lag time [1, 7]: 10,000 min
fibrillization detected (ThT) ([1]; 400 μM peptide, absence of salt): only a very weak signal for fibrils was detected
fibrillization detected (ThT) ([1]; 400 μM peptide, pH 7.4, 2% DMSO, 25°C): weak fibrillization
fibrillization detected (ThT) ([1]; 400 μM peptide, physiological salt concentrations and above): Fibrillization was stimulated
aggregate morphology by TEM [2]: only detected amorphous aggregates with nonfibrillar morphologies; also recorded: few if any fibrils
protection against WT-amylin cytotoxicity (overall) [3]: failed to protect against WT-amylin cytotoxicity
reduction in elongation rates relative to arginine-peptides (WT-amylin [4]; 20 μM WT-amylin): only about half of that for the arginine-peptides
effect on WT-amylin fibrillization lag time (WT-amylin [4]; 20 μM WT-amylin, 150 mM NaCl): decrease at high concentrations; also recorded: causes a reduction in lag times at high concentrations of the analog (>10 μM); also recorded: decreases the lag times
reduction of WT-amylin fibril elongation rate (WT-amylin [4]; 20 μM WT-amylin, 150 mM NaCl): 4 fold
salt dependence of inhibition of elongation rate (WT-amylin [4]; 20 μM WT-amylin, varying NaCl): salt effects on elongation rates are reduced close to the uncertainties of the measurements
salt dependence of lag time shortening (WT-amylin [4]; 20 μM WT-amylin, varying NaCl): shows a strong salt concentration dependence
TEM of WT-amylin fibrils formed with inhibitor (WT-amylin [5]): indistinguishable from those formed with WT-amylin alone
